The source of these data is patent publication US20040121316A1 (priority 2002, published 2004).

Some results are limits rather than exact numbers.

For orientation: EC50 means the concentration needed to bring the measured effect to its halfway point.

For the first assay, the system named is mutant HIV-1 I84V/L90M. Nature of the assay: Resistance Evaluation, I84V/L90M fold change. It counts as cell-based. The conditions noted are these: EC50 of mutant I84V/L90M relative to wild type; class symbols.
On to `CCOP(=O)(CN1CC=C(CC(NC(=O)OC2COC3OCCC23)C(O)CN(CC(C)C)S(=O)(=O)c2ccc(OC)cc2)CC1)OCC` (stereo not drawn), for which the I84V/L90M fold change result is recorded as “+ (>3 to ≦10)”.
Still for that read-out and setting: for `CCOP(=O)(CCC1=CCN(CC(NC(=O)OC2COC3OCCC23)C(O)CN(CC(C)C)S(=O)(=O)c2ccc(OC)cc2)CC1)OCC` (stereo not drawn) the value was “+ (>3 to ≦10)”.
Same read-out and setting: the same measure for `CCOP(=O)(Cc1ccc(NCC(NC(=O)OC2COC3OCCC23)C(O)CN(CC(C)C)S(=O)(=O)c2ccc(OC)cc2)cc1)OCC` (stereo not drawn): “+ (>3 to ≦10)”; for `CCOP(=O)(Cc1ccc(N(C)CC(NC(=O)OC2COC3OCCC23)C(O)CN(CC(C)C)S(=O)(=O)c2ccc(OC)cc2)cc1)OCC` (stereo not drawn): “+ (>3 to ≦10)”.
Same read-out and setting: for `CCOP(=O)(Cc1ccc(CN(C)CC(NC(=O)OC2COC3OCCC23)C(O)CN(CC(C)C)S(=O)(=O)c2ccc(OC)cc2)cc1)OCC` (stereo not drawn) the value was “− (≦3)”; for `CCOP(=O)(Cc1ccc2c(c1)CCN(CC(NC(=O)OC1COC3OCCC13)C(O)CN(CC(C)C)S(=O)(=O)c1ccc(OC)cc1)C2)OCC` (stereo not drawn), “+ (>3 to ≦10)”.
`CCOP(=O)(CNc1ccc(CC(NC(=O)OC2COC3OCCC23)C(O)CN(CC(C)C)S(=O)(=O)c2ccc(OC)cc2)cc1)OCC` (stereo not drawn): the I84V/L90M fold change entry is recorded as “− (≦3)”.
Same read-out and setting: the same measure for `COc1ccc(S(=O)(=O)N(CC(C)C)CC(O)C(Cc2ccc(NCP(=O)(OCc3ccccc3)OCc3ccccc3)cc2)NC(=O)OC2COC3OCCC23)cc1` (stereo not drawn): “− (≦3)”.

Still in this assay, the particulars now being: mutant I84V/L90M vs wild type.
Consider `COc1ccc(S(=O)(=O)N(CC(C)C)CC(O)C(Cc2ccc(C)cc2)NC(=O)OC2COC3OCCC23)cc1` (stereo not drawn), for which the I84V/L90M fold change entry is “+ (>3 to ≦10)”.
Still for that read-out and setting: the same measure for `COc1ccc(S(=O)(=O)N(CC(C)C)CC(O)C(Cc2ccc(OCc3ccccc3)cc2)NC(=O)OC2COC3OCCC23)cc1` (stereo not drawn): “− (≦3)”; for `COc1ccc(S(=O)(=O)N(CCN2CCOCC2)CC(O)C(Cc2ccc(OCP(=O)(OCc3ccccc3)OCc3ccccc3)cc2)NC(=O)OC2COC3OCCC23)cc1` (stereo not drawn): “+ (>3 to ≦10)”; for `Cc1ccc(C(=O)NC(Cc2ccc(OCP(=O)(OCc3ccccc3)OCc3ccccc3)cc2)C(O)CN(CC(C)C)S(=O)(=O)c2ccc(N)cc2)cc1O` (stereo not drawn): “+ (>3 to ≦10)”.
On the same count and under the same terms, for `CCOP(=O)(COc1ccc(CC(NC(=O)OC2COC3OCCC23)C(O)CN(CC(C)C)S(=O)(=O)c2ccc([N+](=O)[O-])cc2)cc1)OCC` (stereo not drawn) the value was “− (≦3)”.

The next assay concerns wild-type HIV-1 strain IIIB. Nature of the assay: microbe, parasite or virus in culture. It is filed as cell-based. On the set-up: scale not given here.
Settings: not given
Take `CCOP(=O)(COc1ccc(C[C@H](NC(=O)O[C@H]2CO[C@H]3OCC[C@H]32)[C@H](O)CN(CC(C)C)S(=O)(=O)c2ccc([N+](=O)[O-])cc2)cc1)OCC`: the “EC50 (nM)” value is reported as “+ +”.
In the case of `CCOP(=O)(CCNCc1ccc(CC(NC(=O)OC2COC3OCCC23)C(O)CN(CC(C)C)S(=O)(=O)c2ccc(OC)cc2)cc1)OCC` (stereo not drawn) [drawing 619 R1=Et R2=Et], the EC50 result is recorded as “+ + +”.

Staying with this assay, now noted: Human immunodeficiency virus 1, IIIB.
On to `CCOP(=O)(COc1ccc2c(c1)CN(CC(NC(=O)OC1COC3OCCC13)C(O)CN(CC(C)C)S(=O)(=O)c1ccc(OC)cc1)C2)OCC` (stereo not drawn), for which the EC50 is more than 5000 nM.
The same measure, in the same setting: for `COc1ccc(S(=O)(=O)N(CC2CCNCC2)CC(O)C(Cc2ccc(O)cc2)NC(=O)OC2COC3OCCC23)cc1` (stereo not drawn) the value was more than 5000 nM.
On the same count and under the same terms, for `COc1ccc(S(=O)(=O)N(CC2CCN(C=O)CC2)CC(O)C(Cc2ccc(OCP(=O)(O)O)cc2)NC(=O)OC2COC3OCCC23)cc1` (stereo not drawn) the value was more than 5000 nM; for `CCOP(=O)(COc1ccc(CC(NC(=O)OC2COC3OCCC23)C(O)CN(CC2CCN(C=O)CC2)S(=O)(=O)c2ccc(OC)cc2)cc1)OCC` (stereo not drawn), more than 5000 nM.
Still for that read-out and setting: the same measure for `CCOP(=O)(COc1ccc(CC(NC(=O)OC2COC3OCCC23)C(O)CN(CC2CCN(C)CC2)S(=O)(=O)c2ccc(OC)cc2)cc1)OCC` (stereo not drawn): more than 5000 nM; for `CC(C)CN(CC(O)C(Cc1ccc(OCP(=O)(O)O)cc1)NC(=O)OC1COC2OCCC12)S(=O)(=O)c1ccccc1` (stereo not drawn): more than 5000 nM.
Compound `CC(C)CN(CC(O)C(Cc1ccc(OCP(=O)(O)O)cc1)NC(=O)OC1COC2OCCC12)S(=O)(=O)c1ccc(F)cc1` (stereo not drawn) gave an EC50 of 500 to 5000 nM.
Compound `CC(C)CN(CC(O)C(Cc1ccc(OCP(=O)(O)O)cc1)NC(=O)OC1COC2OCCC12)S(=O)(=O)c1ccc(C(F)(F)F)cc1` (stereo not drawn) registered an EC50 of 500 to 5000 nM.
The same measure, in the same setting: the same measure for `CC(C)CN(CC(O)C(Cc1ccc(OCP(=O)(O)O)cc1)NC(=O)OC1COC2OCCC12)S(=O)(=O)c1ccc(OC(F)(F)F)cc1` (stereo not drawn): 500 to 5000 nM; for `CC(C)CN(CC(O)C(Cc1ccc(OCP(=O)(O)O)cc1)NC(=O)OC1COC2OCCC12)S(=O)(=O)N1CCN(C)CC1` (stereo not drawn): more than 5000 nM; for `COc1ccc(S(=O)(=O)N(CC(C)C)CC(O)C(Cc2ccccc2)NC(=O)OC2COC3OCCC23)cc1OCP(=O)(OCc1ccccc1)OCc1ccccc1` (stereo not drawn): 500 to 5000 nM.
The same measure, in the same setting: the same measure for `CC(C)CN(C[C@@H](O)[C@H](Cc1ccccc1)NC(=O)O[C@H]1CO[C@H]2OCC[C@H]21)S(=O)(=O)c1ccc(N)cc1` [TMC114, reference compound]: less than 50 nM.
The compound `COc1ccc(S(=O)(=O)N(CC(C)C)CC(O)C(Cc2ccc(OCP(=O)(OCC(F)(F)F)OCC(F)(F)F)cc2)NC(=O)OC2COC3OCCC23)cc1` (stereo not drawn) [drawing 608 R1=OCH2CF3 R2=OCH2CF3] came in with a concentration giving a half-maximal response (EC50) of more than 5000 nM.
The compound `CCOP(=O)(COc1ccc(CC(NC(=O)OC2COC3OCCC23)C(O)CN(CC(C)C)S(=O)(=O)c2ccc(OC)cc2)cc1)OCC` (stereo not drawn) [drawing 608 R1=OEt R2=OEt] displayed an EC50 of less than 50 nM.
On the same count and under the same terms, for `COc1ccc(S(=O)(=O)N(CC(C)C)CC(O)C(Cc2ccc(OCP(=O)(OC)OC)cc2)NC(=O)OC2COC3OCCC23)cc1` (stereo not drawn) [drawing 608 R1=OMe R2=OMe] the value was less than 50 nM.
The same measure, in the same setting: for `COc1ccc(S(=O)(=O)N(CC(C)C)CC(O)C(Cc2ccc(OCP(=O)(OC(C)C)OC(C)C)cc2)NC(=O)OC2COC3OCCC23)cc1` (stereo not drawn) [drawing 608 R1=OiPr R2=OiPr] the value was less than 50 nM; for `CCOP(=O)(COc1ccc(CC(NC(=O)OC2COC3OCCC23)C(O)CN(CC(C)C)S(=O)(=O)c2ccc(O)cc2)cc1)OCC` (stereo not drawn) [drawing 609 R1=Et R2=Et], less than 50 nM.
The same measure, in the same setting: the same measure for `CC(C)CN(CC(O)C(Cc1ccc(OCP(=O)(O)O)cc1)NC(=O)OC1COC2OCCC12)S(=O)(=O)c1ccc(O)cc1` (stereo not drawn) [drawing 609 R1=OH R2=OH]: 500 to 5000 nM; for `CCCCOC(=O)C(C)NP(=O)(COc1ccc(CC(NC(=O)OC2COC3OCCC23)C(O)CN(CC(C)C)S(=O)(=O)c2ccc(OC)cc2)cc1)NC(C)C(=O)OCCCC` (stereo not drawn) [drawing 612 R1=Ala-Bu R2=Ala-Bu]: less than 50 nM; for `CCCCOC(=O)CNP(=O)(COc1ccc(CC(NC(=O)OC2COC3OCCC23)C(O)CN(CC(C)C)S(=O)(=O)c2ccc(OC)cc2)cc1)NCC(=O)OCCCC` (stereo not drawn) [drawing 612 R1=Gly-Bu R2=Gly-Bu]: less than 50 nM.
`CCOC(=O)CNP(=O)(COc1ccc(CC(NC(=O)OC2COC3OCCC23)C(O)CN(CC(C)C)S(=O)(=O)c2ccc(OC)cc2)cc1)NCC(=O)OCC` (stereo not drawn) [drawing 612 R1=Gly-Et R2=Gly-Et] showed an EC50 of 50 to 500 nM.
On the same count and under the same terms, the same measure for `CCOC(=O)C(CC(C)C)NP(=O)(COc1ccc(CC(NC(=O)OC2COC3OCCC23)C(O)CN(CC(C)C)S(=O)(=O)c2ccc(OC)cc2)cc1)NC(CC(C)C)C(=O)OCC` (stereo not drawn) [drawing 612 R1=Leu-Et R2=Leu-Et]: less than 50 nM; for `COc1ccc(S(=O)(=O)N(CC(C)C)CC(O)C(Cc2ccc(OCP(=O)(O)NC(C)C(=O)O)cc2)NC(=O)OC2COC3OCCC23)cc1` (stereo not drawn) [drawing 614 R1=OH R2=Ala-OH]: more than 5000 nM; for `COc1ccc(S(=O)(=O)N(CC(C)C)CC(O)C(Cc2ccc(CNCCP(=O)(O)O)cc2)NC(=O)OC2COC3OCCC23)cc1` (stereo not drawn) [drawing 619 R1=H R2=H]: more than 5000 nM.

The assay is the same for the next values; noted with them: Human immunodeficiency virus 1, IIIB, MT2, 120 h, read-out: Anti-HIV-1 Cell Culture Activity EC50.
Take `CCOC(=O)CNP(=O)(COc1ccc(CC(NC(=O)OC2COC3OCCC23)C(O)CN(CC(C)C)S(=O)(=O)c2ccc(OC)cc2)cc1)NCC(=O)OCC` (stereo not drawn) [Compound 16a]: the EC50 stood at 330 ± 230 nM.
Still for that read-out and setting: for `CCCCOC(=O)C(CC)NP(=O)(COc1ccc(CC(NC(=O)OC2COC3OCCC23)C(O)CN(CC(C)C)S(=O)(=O)c2ccc(OC)cc2)cc1)NC(CC)C(=O)OCCCC` (stereo not drawn) [Example 16f] the value was 4.8 ± 1.8 nM.
The same measure, in the same setting: the same measure for `CCCCOC(=O)C(CC(C)C)NP(=O)(COc1ccc(CC(NC(=O)OC2COC3OCCC23)C(O)CN(CC(C)C)S(=O)(=O)c2ccc(OC)cc2)cc1)NC(CC(C)C)C(=O)OCCCC` (stereo not drawn) [Example 16h]: 120 ± 42 nM.

The same assay, now with this note: read-out: EC50.
Turning to `CCOC(=O)C(CC)NP(=O)(COc1ccc(CC(NC(=O)OC2COC3OCCC23)C(O)CN(CC(C)C)S(=O)(=O)c2ccc(OC)cc2)cc1)Oc1ccccc1` (stereo not drawn) [Example 16576], the 50% effective concentration (EC50) turned out to be 12.6 ± 4.8 nM.
Same read-out and setting: for `COc1ccc(S(=O)(=O)N(CC(C)C)C[C@@H](O)[C@H](Cc2ccc(OCP(=O)(O)O)cc2)NC(=O)O[C@H]2CO[C@H]3OCC[C@H]32)cc1` [GS8373] the value was 4800 nM.
The same measure, in the same setting: for `CC(C)CN(C[C@@H](O)[C@H](Cc1ccc([N+](=O)[O-])cc1)NC(=O)O[C@H]1CO[C@H]2OCC[C@H]21)S(=O)(=O)c1ccc(OCP(=O)(Oc2ccccc2)Oc2ccccc2)cc1` [NO2, phenol] the value was less than 50 nM; for `CC(C)CN(CC(O)C(Cc1ccc(OCCN(C)C)cc1)NC(=O)OC1COC2OCCC12)S(=O)(=O)c1ccc(OCP(=O)(OCc2ccccc2)OCc2ccccc2)cc1` (stereo not drawn) [OC2H4-NMe2, OBn], 50 to 500 nM; for `CC(C)CN(CC(O)C(Cc1ccc(OCCN(C)C)cc1)NC(=O)OC1COC2OCCC12)S(=O)(=O)c1ccc(OCP(=O)(O)O)cc1` (stereo not drawn) [OC2H4NMe2, OH], 500 to 5000 nM.
For `CC(C)CN(CC(O)C(Cc1ccc(O)cc1)NC(=O)OC1COC2OCCC12)S(=O)(=O)c1ccc(OCP(=O)(OCc2ccccc2)OCc2ccccc2)cc1` (stereo not drawn) [OH, OBn], the EC50 is 50 to 500 nM.
The same measure, in the same setting: the same measure for `CC(C)CN(CC(O)C(Cc1ccc(O)cc1)NC(=O)OC1COC2OCCC12)S(=O)(=O)c1ccc(OCP(=O)(O)O)cc1` (stereo not drawn) [OH, OH]: more than 5000 nM; for `COc1ccc(S(=O)(=O)N(CC(C)C)C[C@@H](OP(=O)(O)O)[C@H](Cc2ccccc2)NC(=O)O[C@H]2CO[C@H]3OCC[C@H]32)cc1` [Phosphate prodrug of 94-003]: less than 50 nM.
On the same count and under the same terms, the same measure for `CC(C)CN(C[C@@H](OP(=O)(O)O)[C@H](Cc1ccccc1)NC(=O)O[C@H]1CCOC1)S(=O)(=O)c1ccc(N)cc1` [Phosphate prodrug of ampenavir]: 50 to 500 nM.
